Measured values from patent US9822115B2, “Nitrogen containing compounds and their use as antibacterial agents” (WOCKHARDT LIMITED, priority 2014, dated 2017).
Converted amounts (≈) assume the structure as drawn. Where two headings read alike, the source gives them in different places.

Columns and labels:
[1] = test system: T1, Class C beta-lactamase, E. coli M50 (CMY/DHA); type: biochemical; conditions: read-out: Beta-lactamase enzyme inhibition IC50
T1 construct: no borders, tags or purification printed
Description: (§1) Determination of enzyme inhibition activity: Concentration of the inhibitor required to inhibit 50% of enzymatic activity was measured by adding a chromogenic substrate, Nitrocefin (100 uM, 5 min) to the preincubated mixture of crude enzyme and the agents (37° C., 10 min). Absorbance was measured at 485 nm by UV-spectrophotometer. The IC50 was calculated by plotting absorbance against concentration through Sigmoidal dose response curve using Graph Pad software.
(§2) The enzyme inhibition was expressed as IC50.

[2] = test system: E. coli NCTC 13353 (CTX-M15, OXA-1); assay: Antibacterial activity, MIC by agar dilution (CLSI); type: cell-based
Description: (§3) The biological activity of representative compounds according to the invention against various bacterial strains was investigated. In a typical study, overnight grown bacterial cultures were diluted appropriately and inoculated on the agar media containing doubling dilutions of the test compounds. Observations for growth or no growth was performed after 16-20 hours of incubation at 35±2° C. in the ambient air. The overall procedure was performed as per Clinical and Laboratory Standards Institute (CLSI) recommendations, (Clinical and Laboratory Standards Institute (CLSI), Performance Standards for Antimicrobial Susceptibility Testing, 20th Informational Supplement, M07-A9, Volume 32, No. 2, 2012). Molten Mueller Hinton Agar (BD, USA) containing serial dilutions of each antibacterial agent were poured on to the plates and allowed to solidify. Appropriate suspensions from the freshly grown cultures were prepared in normal saline so that about 10^4 CFU/spot of the organism was delivered on to the drug containing agar plates using automated multipoint inoculator (Mast, UK). The plates were incubated in Biochemical oxygen demand (BOD) incubator at 37° C. for 18 hours and then examined for growth.
Table 2 details the antibacterial activity of representative compounds according to invention, against various Multi Drug Resistant (MDR) Gram-negative bacterial strains. The strains selected for study included E. coli NCTC 13353 producing CTX-M15 and OXA-1 beta-lactamase enzymes; K. pneumoniae H521 producing KPC, SHV, TEM beta-lactamase enzymes; and K. pneumoniae S48 producing NDM, SHV, TEM beta-lactamase enzymes. The activities are expressed as Minimum Inhibitory Concentrations (MICs) (mcg/ml).

[3] = test system: K. pneumoniae H521 (KPC, SHV, TEM); assay: as above; type: cell-based
Description: as §3
(§4) The strains selected for study included E. coli NCTC 13353 producing CTX-M15 and OXA-1 beta-lactamase enzymes; K. pneumoniae H521 producing KPC, SHV, TEM beta-lactamase enzymes; and K. pneumoniae S48 producing NDM, SHV, TEM beta-lactamase enzymes. The activities are expressed as Minimum Inhibitory Concentrations (MICs) (mcg/ml).

[4] = biological target: T2, Class A beta-lactamase, K. pneumoniae ATCC 700603 (SHV 18) (Klebsiella pneumoniae, UniProt P0AD64, E235K/G234A/R39S); assay: biochemical
T2 construct: preincubated mixture of crude enzyme and the agents; endogenous in cells; host or cells: K. pneumoniae ATCC 700603
T2 sequence (P0AD64 22-286 R39S/G234A/E235K): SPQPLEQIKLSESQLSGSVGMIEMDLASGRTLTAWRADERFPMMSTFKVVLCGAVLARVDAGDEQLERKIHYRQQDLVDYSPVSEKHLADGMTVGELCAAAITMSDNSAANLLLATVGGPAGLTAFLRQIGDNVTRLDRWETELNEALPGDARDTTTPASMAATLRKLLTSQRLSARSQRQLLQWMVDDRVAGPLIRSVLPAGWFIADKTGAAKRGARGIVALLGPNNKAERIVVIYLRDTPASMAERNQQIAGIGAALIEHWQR
Description: as §1, §2

[5] = biological target: T3, Class D beta-lactamase, A. baumannii NCTC 13301 (OXA 23) (Acinetobacter baumannii, UniProt Q9L4P2); assay: Beta-lactamase enzyme inhibition (nitrocefin, crude enzyme); type: biochemical; conditions: Class D A. baumannii NCTC 13301 (OXA 23); read-out: Beta-lactamase enzyme inhibition IC50
T3 construct: preincubated mixture of crude enzyme and the agents; endogenous in cells; host or cells: A. baumannii NCTC 13301
T3 sequence (Q9L4P2 18-273): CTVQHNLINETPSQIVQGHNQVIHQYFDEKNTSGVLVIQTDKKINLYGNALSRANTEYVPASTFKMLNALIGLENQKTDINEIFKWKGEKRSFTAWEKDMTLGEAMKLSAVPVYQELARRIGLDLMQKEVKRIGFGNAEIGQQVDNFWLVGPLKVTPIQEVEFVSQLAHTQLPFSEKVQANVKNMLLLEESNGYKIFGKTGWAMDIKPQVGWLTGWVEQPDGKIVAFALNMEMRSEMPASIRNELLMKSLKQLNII
Description: as §1, §2

[6] = test system: K. pneomoniae S48 (NDM, SHV, TEM); assay: Antibacterial activity, MIC by agar dilution (CLSI); type: cell-based, K. pneumoniae
Description: as §3, §4

[7] = Escherichia coli, NCTC13353, Table 2, E. Coli NCTC 13353 (CTX-M15, OXA-1), read-out: MIC
[8] = Klebsiella pneumoniae, Table 2, K. pneumoniae H521 (KPC, SHV, TEM), read-out: MIC
[9] = Klebsiella pneumoniae, Table 2, K. pneomoniae S48 (NDM, SHV, TEM), read-out: MIC
[10] = Escherichia coli, NCTC13353, 18 h, Table 2, E. Coli NCTC 13353 (CTX-M15, OXA-1), read-out: MIC
[11] = Klebsiella pneumoniae, 18 h, Table 2, K. pneumoniae H521 (KPC, SHV, TEM), read-out: MIC
[12] = Klebsiella pneumoniae, 18 h, Table 2, K. pneomoniae S48 (NDM, SHV, TEM), read-out: MIC
[13] = Table 2, E. Coli NCTC 13353 (CTX-M15, OXA-1)
[14] = Table 2, K. pneomoniae S48 (NDM, SHV, TEM)

Compound	IC50 [1]	MIC ([2]; Escherichia coli, NCTC13353)	MIC ([3]; Klebsiella pneumoniae)	IC50 [4]	IC50 [5]	MIC ([6]; Klebsiella pneumoniae)	MIC [2, 7]	MIC [3, 8]	MIC [6, 9]	MIC [2, 10]	MIC [3, 11]	MIC [6, 12]	MIC [2, 13]	MIC [6, 14]	MIC ([3]; Table 2, K. pneumoniae H521 (KPC, SHV, TEM))
O=C(O)[C@H]1/C(=C/CO)O[C@@H]2CC(=O)N21 [Clavulanic acid, clavulanic acid, reference compound]	> 10 µM														
Nc1ccc(CC(=O)NNC(=O)[C@@H]2CC[C@@H]3CN2C(=O)N3OS(=O)(=O)O)cc1 [Example 11, (2S,5R)-sulfuric acid mono-[2-(N′-(4-aminophenyl-acetyl)-hydrazinocarbonyl)-7-oxo-1,6-diaza-bicyclo[3.2.1]oct-6-yl]ester]	0.01 µM	0.5 mg/L (≈ 1.21 µM)	1 mg/L (≈ 2.42 µM)	0.032 µM	0.408 µM	1 mg/L (≈ 2.42 µM)									
Nc1ccc(CC(=O)NNC(=O)[C@@H]2CC[C@@H]3CN2C(=O)N3OS(=O)(=O)O)c(F)c1 [Example 17, (2S,5R)-sulfuric acid mono-[2-(N′-(4-amino-2-fluorophenyl-acetyl)-hydrazinocarbonyl)-7-oxo-1,6-diaza-bicyclo[3.2.1]oct-6-yl]ester]	0.014 µM				0.194 µM		1 mg/L (≈ 2.32 µM)	4 mg/L (≈ 9.27 µM)	1 mg/L (≈ 2.32 µM)						
Nc1ccccc1CC(=O)NNC(=O)[C@@H]1CC[C@@H]2CN1C(=O)N2OS(=O)(=O)O [Example 21, (2S,5R)-sulfuric acid mono-[2-(N′-(2-aminophenyl-acetyl)-hydrazinocarbonyl)-7-oxo-1,6-diaza-bicyclo[3.2.1]oct-6-yl]ester]	0.034 µM	16 mg/L (≈ 38.7 µM)	16 mg/L (≈ 38.7 µM)	0.035 µM	4.51 µM	16 mg/L (≈ 38.7 µM)									
C[C@H](N)C(=O)Oc1ccc(CC(=O)NNC(=O)[C@@H]2CC[C@@H]3CN2C(=O)N3OS(=O)(=O)O)cc1 [Example 23, (S)-2-amino-propionic acid 4-{2-oxo-2-[N′-((2S,5R)-7-oxo-6-sulphooxy-1,6-diaza-bicyclo[3.2.1]octane-2-carbonyl)-hydrazino]ethyl}-phenyl ester]	0.023 µM			0.003 µM	0.24 µM		0.5 mg/L (≈ 1.03 µM)	2 mg/L (≈ 4.12 µM)	0.5 mg/L (≈ 1.03 µM)						
CC(C)[C@H](N)C(=O)Oc1ccc(CC(=O)NNC(=O)[C@@H]2CC[C@@H]3CN2C(=O)N3OS(=O)(=O)O)cc1 [Example 24, (S)-2-amino-3-methyl-butyric acid 4-{2-oxo-2-[N′-((2S,5R)-7-oxo-6-sulphooxy-1,6-diaza-bicyclo[3.2.1]octane-2-carbonyl)-hydrazino]ethyl}-phenyl ester]	0.005 µM			0.002 µM	0.151 µM		1 mg/L (≈ 1.95 µM)	4 mg/L (≈ 7.79 µM)	0.5 mg/L (≈ 0.974 µM)						
O=C(Cc1ccc(OC(=O)[C@@H]2CCCN2)cc1)NNC(=O)[C@@H]1CC[C@@H]2CN1C(=O)N2OS(=O)(=O)O [Example 25, (S)-pyrrolidine-2-carboxylic acid 4-{2-oxo-2-[N′-((2S,5R)-7-oxo-6-sulphooxy-1,6-diaza-bicyclo[3.2.1]octane-2-carbonyl)-hydrazino]ethyl}-phenyl ester]	0.011 µM			0.016 µM	0.329 µM		0.5 mg/L (≈ 0.977 µM)	1 mg/L (≈ 1.95 µM)	1 mg/L (≈ 1.95 µM)						
NCCOc1ccc(CC(=O)NNC(=O)[C@@H]2CC[C@@H]3CN2C(=O)N3OS(=O)(=O)O)cc1 [Example 30, (2S,5R)-sulfuric acid mono-[2-(N′-{2-[4-(2-amino-ethoxy)-phenyl]-acetyl}-hydrazinocarbonyl)-7-oxo-1,6-diaza-bicyclo[3.2.1]oct-6-yl]ester]	0.036 µM			0.007 µM	0.451 µM		0.5 mg/L (≈ 1.09 µM)	2 mg/L (≈ 4.37 µM)	0.5 mg/L (≈ 1.09 µM)						
NCCOc1cccc(CC(=O)NNC(=O)[C@@H]2CC[C@@H]3CN2C(=O)N3OS(=O)(=O)O)c1 [Example 32, (2S,5R)-sulfuric acid mono-[2-(N′-{2-[3-(2-amino-ethoxy)-phenyl]-acetyl}-hydrazinocarbonyl)-7-oxo-1,6-diaza-bicyclo[3.2.1]oct-6-yl]ester]	0.033 µM			0.076 µM	1.77 µM		0.5 mg/L (≈ 1.09 µM)	0.5 mg/L (≈ 1.09 µM)	0.5 mg/L (≈ 1.09 µM)						
NCCCOc1ccccc1CC(=O)NNC(=O)[C@@H]1CC[C@@H]2CN1C(=O)N2OS(=O)(=O)O [Example 34, (2S,5R)-sulfuric acid mono-[2-(N′-{2-[2-(3-amino-propoxy)-phenyl]-acetyl}-hydrazinocarbonyl)-7-oxo-1,6-diaza-bicyclo[3.2.1]oct-6-yl]ester]	0.06 µM			0.079 µM	3.81 µM		2 mg/L (≈ 4.24 µM)	2 mg/L (≈ 4.24 µM)	2 mg/L (≈ 4.24 µM)						
NCCCOc1cccc(CC(=O)NNC(=O)[C@@H]2CC[C@@H]3CN2C(=O)N3OS(=O)(=O)O)c1 [Example 35, (2S,5R)-sulfuric acid mono-[2-(N′-{2-[3-(3-amino-propoxy)-phenyl]-acetyl}-hydrazinocarbonyl)-7-oxo-1,6-diaza-bicyclo[3.2.1]oct-6-yl]ester]	0.038 µM			0.712 µM	1.91 µM		0.5 mg/L (≈ 1.06 µM)	1 mg/L (≈ 2.12 µM)	0.5 mg/L (≈ 1.06 µM)						
CNCCOc1ccccc1CC(=O)NNC(=O)[C@@H]1CC[C@@H]2CN1C(=O)N2OS(=O)(=O)O [Example 36, (2S,5R)-sulfuric acid mono-[2-(N′-{2-[2-(2-N-methylamino-ethoxy)-phenyl]-acetyl}-hydrazinocarbonyl)-7-oxo-1,6-diaza-bicyclo[3.2.1]oct-6-yl]ester]				0.071 µM	2.17 µM					1 mg/L (≈ 2.12 µM)	2 mg/L (≈ 4.24 µM)	1 mg/L (≈ 2.12 µM)			
CNCCOc1cccc(CC(=O)NNC(=O)[C@@H]2CC[C@@H]3CN2C(=O)N3OS(=O)(=O)O)c1 [Example 37, (2S,5R)-sulfuric acid mono-[2-(N′-{2-[3-(2-N-methylamino-ethoxy)-phenyl]-acetyl}-hydrazinocarbonyl)-7-oxo-1,6-diaza-bicyclo[3.2.1]oct-6-yl]ester]				0.036 µM	0.938 µM					0.5 mg/L (≈ 1.06 µM)	1 mg/L (≈ 2.12 µM)	0.5 mg/L (≈ 1.06 µM)			
O=C(Cc1ccc(O[C@H]2CCNC2)cc1)NNC(=O)[C@@H]1CC[C@@H]2CN1C(=O)N2OS(=O)(=O)O [Example 64]				0.047 µM	0.432 µM		0.5 mg/L (≈ 1.03 µM)	1 mg/L (≈ 2.07 µM)	0.5 mg/L (≈ 1.03 µM)						
sodium salt of (2S,5R)-succinic acid tert-butyl ester 4-{2-oxo-2-[N′-(7-oxo-6-sulphooxy-1,6-diaza-bicyclo[3.2.1]octane-2-carbonyl)-hydrazino]ethyl}-phenyl ester [Example 27]	0.014 µM				0.498 µM								2 mg/L	8 mg/L	
sodium salt of (2S,5R)-sulfuric acid mono-[2-(N′-(3,3-diphenyl-propionyl)-hydrazinocarbonyl)-7-oxo-1,6-diaza-bicyclo[3.2.1]oct-6-yl]ester [Example 7]	0.014 µM				0.089 µM								>32 mg/L	>32 mg/L	>32 mg/L
